Consider two molecules from article PMC9176662, “Design, synthesis, molecular modeling and biological evaluation of novel Benzoxazole-Benzamide conjugates via a 2-Thioacetamido linker as potential anti-proliferative agents, VEGFR-2 inhibitors and apoptotic inducers” (Journal of Enzyme Inhibition and Medicinal Chemistry, 2022).

SMILES strings stand for the structures. Values joined by “and” are separate entries in the source; they are usually repeats but may differ in a detail not shown here. Equal values may be shown once.

One assay relates to HCT-116 cells. As to the kind of experiment: Annexin V-FITC/PI apoptosis assay, HCT-116. It counts as cell-based, human. The following applies: for increase in total apoptosis compared to the control: HCT-116; for %Apoptosis %Early / %Apoptosis %Late / %Necrosis: HCT-116, 48 h incubation; for %Apoptosis %Early: control 1.1; for %Apoptosis %Late: control 1.57; for %Necrosis: control 1.85. As to the method: 2.4. Annexin V-FITC/PI apoptosis assay.
For this study, annexin V-FITC / PI apoptosis detection kit was used; HCT -116 and MCF-7 cells were stained with annexin V fluorescein isothiocyanate (FITC) and propidium iodide (PI) counter-stained.1 x 10^5 HCT-116 cells were 48 h incubated with compound 1 or 11, trypsinized, washed with phosphate-buffered saline (PBS), stained in the dark at 37 °C for 15 min utes.
Finally, the cells analyzed with a cytometer of FACS Caliber flow.

Another assay addresses T1, VEGFR-2 Protein Kinase (Homo sapiens, UniProt P35968).
T1 construct: It includes active VEGFR-2 kinase; purchased HTScan VEGF Receptor-2 Kinase Assay Kit
Nature of the assay: VEGFR-2 inhibitory activity (HTScan VEGF Receptor-2 Kinase Assay Kit, ELISA). It counts as biochemical. The following applies: mean of three individual experiments. As to the method:
2.2. VEGFR-2 Inhibitory activity
VEGFR-2 ELISA (Enzyme-Linked Immunosorbent Assay) kits (HTScan® VEGF Receptor-2 […]
phospho-tyrosine antibody) for detection of the phosphorylated form of the substrate peptide).
On a 96-well plate, a particular VEGFR-2 antibody was seeded and 100 μL of the normal solution or the tested compound tested was applied, incubated at room temperature for 2.5 h and washed. Then, 100 μL of the prepared biotin antibody was added, incubated for an additional 1 h at room temperature and washed. Following, 100 μL of streptavidin solution was added at room temperature, incubated for 45 minutes and then, 100 μL of TMB Substrate solution was applied and incubated at room temperature for 30 minutes. Finally, 50 μL stop solution was added and the absorption was measured at 450 nm instantly. The standard curve, the X -axis concentrations, and the Y-axis absorbance were drawn. […]

Another assay deals with Bcl-xL. As to the kind of experiment: Western blot of Bcl-xL expression in HCT-116. The following applies: HCT-116, Western blot, normalised to β-actin. It counts as cell-based, human. The text has this: It is well known that the anti-apoptotic proteins Bcl-2 and Bcl-xL are mainly overexpressed in various types of cancer, causing survival of cancer cells and/or drug resistance. Therefore, inhibition of these proteins expression leads to cancer cell death and has been used as a strategy for anticancer drug development. In this study, the impact of compounds 1 and 11 on Bcl-2 and Bcl-xL expression in HCT-116 and MCF-7 cancer cell lines was examined using Western blot analysis and all the data were normalised to β-actin (Figure 9).
2.5. Impact of compounds 1 and 11 on the level of anti-apoptotic markers (Bcl-2, and Bcl-xL).
Gel electrophoresis and immuno-blot analysis of proteins (Western Blot) method was used to examine the effect of compounds 1 and 11 on the level of anti-apoptotic markers (Bcl-2, and Bcl-xL). […]
The cells were then immediately frozen at −20 °C for 1 h for further lysis and collected by cell scraper and sonicated 2×10s. Total protein concentrations were determined colorimetrically using Bradford method before proceeding to the western blotting. […] Briefly, the membranes were incubated for 1 min with a mixture of equal volumes from ECL solution A and ECL solution B. The chemiluminescent signals were captured using a CCD camera-based imager (Chemi Doc imager, Biorad, USA), and the band intensities were then measured with β-actin as an internal reference protein. […]

T1 sequence (P35968 20-1356): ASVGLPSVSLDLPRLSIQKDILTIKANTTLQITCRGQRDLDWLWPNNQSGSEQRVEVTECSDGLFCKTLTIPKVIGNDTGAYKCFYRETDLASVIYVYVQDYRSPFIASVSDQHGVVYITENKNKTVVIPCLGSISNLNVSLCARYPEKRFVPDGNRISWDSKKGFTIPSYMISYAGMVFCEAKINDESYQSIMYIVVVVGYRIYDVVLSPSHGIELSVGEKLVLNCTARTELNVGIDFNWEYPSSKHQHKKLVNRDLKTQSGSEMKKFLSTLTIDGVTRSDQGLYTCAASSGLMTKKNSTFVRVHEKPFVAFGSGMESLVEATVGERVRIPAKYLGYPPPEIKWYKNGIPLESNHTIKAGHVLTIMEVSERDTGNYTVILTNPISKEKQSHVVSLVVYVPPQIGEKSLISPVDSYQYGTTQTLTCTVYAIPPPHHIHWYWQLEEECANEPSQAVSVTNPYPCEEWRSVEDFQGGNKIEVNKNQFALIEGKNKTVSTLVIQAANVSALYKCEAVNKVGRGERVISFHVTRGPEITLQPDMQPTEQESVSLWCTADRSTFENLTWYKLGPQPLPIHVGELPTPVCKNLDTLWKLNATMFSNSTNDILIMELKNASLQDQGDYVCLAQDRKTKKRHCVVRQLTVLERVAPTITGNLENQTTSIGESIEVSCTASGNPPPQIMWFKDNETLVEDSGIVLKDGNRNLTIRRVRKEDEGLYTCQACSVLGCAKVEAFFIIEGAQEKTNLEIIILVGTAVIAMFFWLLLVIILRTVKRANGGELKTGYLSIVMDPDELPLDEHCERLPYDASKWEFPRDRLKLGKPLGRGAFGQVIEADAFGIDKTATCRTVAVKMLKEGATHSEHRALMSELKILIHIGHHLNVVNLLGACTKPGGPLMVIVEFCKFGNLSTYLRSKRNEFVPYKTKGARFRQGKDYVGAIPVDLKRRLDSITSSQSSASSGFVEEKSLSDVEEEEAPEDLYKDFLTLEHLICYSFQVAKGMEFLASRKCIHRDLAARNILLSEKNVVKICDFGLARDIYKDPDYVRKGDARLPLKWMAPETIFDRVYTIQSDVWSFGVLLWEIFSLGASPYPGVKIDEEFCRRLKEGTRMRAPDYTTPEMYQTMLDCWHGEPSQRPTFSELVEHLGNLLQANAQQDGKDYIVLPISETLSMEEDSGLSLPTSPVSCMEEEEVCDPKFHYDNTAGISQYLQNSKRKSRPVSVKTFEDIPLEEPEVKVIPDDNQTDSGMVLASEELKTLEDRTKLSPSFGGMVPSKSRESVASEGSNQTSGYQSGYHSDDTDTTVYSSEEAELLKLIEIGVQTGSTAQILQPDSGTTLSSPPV

With `O=C(CSc1nc2ccccc2o1)Nc1ccc(C(=O)NC2CCCCC2)cc1` [Compound 1], in the assay on HCT-116 cells, the “increase in total apoptosis compared to the control” value is “approximately 3.4 fold”, the “%Apoptosis %Early” value was found to be 4.86%, the “%Apoptosis %Late” value was 8.95% and the “%Necrosis” value is given as 1.55%. Moreover, the IC50 (commonly the concentration at which inhibition is half-maximal) at VEGFR-2 Protein Kinase is 270 nM and 268 nM. Further, the Bcl-xL expression result in the assay on Bcl-xL is “inhibited”.

For the molecule `O=C(CSc1nc2cc(Cl)ccc2o1)Nc1ccc(C(=O)Nc2ccc(Cl)cc2)cc1` [Compound 11], in the assay on HCT-116 cells, the “increase in total apoptosis compared to the control” value was about 3.9 fold, the “%Apoptosis %Early” value is 6.01%, the “%Apoptosis %Late” value is listed as 9.62% and the “%Necrosis” value was 1.78%. Besides, the IC50 at VEGFR-2 Protein Kinase is 360 nM and 361 nM. In the assay with Bcl-xL, the Bcl-xL expression entry is on record as “inhibited”.
